The source of these data is patent publication US8349854B2, “Salts of 4-aniline quinazoline derivative” (priority 2007, dated 2013).

The conditions of series [1]: SD rats, gavage 4 weeks, 20, 50, 100, 500 and 800 mg/(kg·day). Here is the method:
Five test groups with the dose of 20, 50, 100, 500 and 800 mg/(kg·day) respectively and a solvent control group were set.

The target in a further series is EGFR tyrosine kinases (Homo sapiens, UniProt P00533). The series can be described thus: Inhibitory effect on EGFR tyrosine kinases (ELISA, Poly(Glu,Tyr) 4:1). It is filed as biochemical. The following applies: result in words. How it is done:
The plate coated with EGFR tyrosine kinases reaction substrate Poly(Glu, Tyr) 4:1 was washed three times with T-PBS and dried in oven at the temperature of 37° C. Every well was added with the ATP solution diluted with reaction buffer, the compound to be tested with grading concentrations and the tyrosine kinases to be tested in sequence to initiate the reaction. The plate was incubated in a shaker for 1 hour at the temperature of 37° C., and then was washed three times with T-PBS (the phosphate buffer containing 0.05% of Tween with a pH of 7.4). Antibody PY99 was added and the reaction was kept on at 37° C. for 1 hour. The plate was washed three times with T-PBS, HRP labeled goat anti mouse IgG was then added and incubated at 37° C. for 1 hour. The colorimetric solution of OPD (o-phenylenediamine) was added and the mixture was reacted in dark at room temperature for 1-10 min. The reaction was terminated by the addition of 2M of H2SO4. The OD value at wavelength of 492 nm was measured using the VersaMax™ microplate reader (MDC company, USA). The inhibitory effect of the samples on EGFR tyrosine kinases was determined by the following formula: Inhibition %=[1−(OD Value of the compound to be tested −OD Value of the control without enzyme)/(OD Value of the negative control−OD Value of the control without enzyme)]×100%.
A general note: In an ELISA, binding on a coated surface is turned into a signal by an enzyme label.

Series [2] concerns human ovarian cancer SKOV-3. The series can be described thus: Anti-tumor effect on human ovarian cancer SKOV-3 transplanted to the BALB/cA nude rat. It is filed as in vivo. How it is done:
A tumor SKOV-3 in vigorous growth period was selected and incised into several bits of an even size of about 1.5 mm^3, which was inoculated subcutaneously to the right armpit of the BALB/cA nude rats using trocar under sterile condition. The diameters of the transplanted tumors were measured with a vernier caliper. The animals were grouped randomly when the tumors reached a size of 80-100 mm^3. The tested animals of the group receiving the compounds to be tested were administrated with the compounds by gavage through mouth once daily for 3 weeks continuously. The positive control drug MMC (Mitomycin) was administered by intravenous injection once on the first day with a dose of 5 mg/kg. The negative control group was administered with 0.5% CMC-Na (Carboxymethyl Cellulose Sodium) with a dose of 0.2 mL/per rat. The major axis (a) and the minor axis (b) of the tumors were measured twice every week and the rats were weighed at the same time. According to the formula V=ab^2/2, the tumor volume (mm^3) could be calculated, based on which the relative tumor volume (RTV) was determined (Formula: RTV=Vt/V0, wherein V0 represents the tumor volume measured at the grouping time (i.e. d0), and Vt represents the tumor volume measured each time). The relative tumor proliferation rate T/C (%) was chosen here to evaluate the anti-tumor activity, which can be calculated according to the following formula: T/C(%)=(TRTV/CRTV)×100%
TRTV: RTV of the group receiving the compounds to be tested; CRTV: RTV of negative control group

Series [3] deals with human epidermatoid squamous cancer cell A431. The series can be described thus: Inhibition of proliferation of tumor cell lines (MTT), A431. As to conditions: 72 h. In kind it is cell-based. How it is done:
(§1) A DMSO solvent control well and a blank well were set in the plate. […] The incubation was continued for 4 h, and 50 μL of triple-expansion solution (10% SDS-5% of isobutyl alcohol-0.01 mol/L of HCl) was added. The plate was placed in the incubator overnight. The OD value was measured by the microplate reader at wavelength of 570 nm.

Series [4] in a line: Drug absorption in SD rat, intragastric administration (ig). In kind it is in vivo. The following applies: SD rat; for AUC0-t / Cmax / T1/2 / Tmax: ig, dosage 21.68 (formula (I)), 23.42 (hydrochloride), 30 mg/kg (p-toluenesulfonate); for absolute bioavailability by ig: revised by dosage, calculated by AUC0-t. Here is the method:
The blood samples were collected 0.5, 1.0, 1.5, 2.0, 3.0, 5.0, 7.0, 9.0, 12 and 24 hours after administration, which were then centrifugated respectively to obtain the plasma. The concentration of the drug in the plasma was determined by means of liquid chromatography/tandem mass spectrometer, and the concentration-time curve was obtained.

Series [5] deals with human breast cancer cell BT-474. The series can be described thus: Inhibition of proliferation of tumor cell lines (MTT), BT-474. It is filed as cell-based. The following applies: BT-474, MTT, 72 h. Here is the method: as §1
In series [6] the test system is human epidermatoid squamous cancer A431. The series can be described thus: Anti-tumor effect on human epidermatoid squamous cancer A431 transplanted to the BALB/cA nude rat. It is filed as in vivo. As to conditions: for Weight of animals (without tumor) / inhibition for tumor % / Weight of tumors x ± SD: 13 days; for Weight of tumors x ± SD: 23 days after inoculation. Here is the method: A well-developed solid tumor A431 was selected and incised into several bits of an even size of 2-3 mm, with one bit being inoculated subcutaneously to the right armpit of each of the BALB/cA nude rats using trocar. 7 days after inoculation, the rats were grouped randomly and were administrated with the compounds by gavage through mouth for 13 days continuously. The major axis (a) and the minor axis (b) of the tumors were measured with a vernier caliper every 4 days. According to the formula V=ab^2/2, the tumor volume (mm^3) could be calculated. The tested animals were neck-off killed 23 days after the inoculation, and anatomized to obtain the tumors. The tumors were weighed and the inhibitory effect of the compounds to be tested was figured out.

Series [7] is described as follows: Drug absorption in SD rat, intravenous injection (iv). The following applies: 5 mg/kg. It is filed as in vivo. How it is done:
The blood samples were collected 5 min, 15 min, 0.5, 1.5, 2.0, 3.0, 4.0, 5.0, 7.0 hours after administration, which were then centrifugated respectively to obtain the plasma. The concentration of the drug in the plasma was determined by means of liquid chromatography/tandem mass spectrometer, and the concentration-time curve was obtained.

Setting [8] is: 5 mg/kg iv once on the first day, after 3 weeks.
Where [9] appears, read: 50 mg/kg ig once daily for 3 weeks.
The mark [10] stands for this setting: 100 mg/kg ig once daily for 3 weeks.
The mark [11] stands for this setting: 200 mg/kg ig once daily for 3 weeks.

For the compound “Tartrate of N-{4-[3-chloro-4-(3-fluoro-benzyloxy)phenylamino]-quinazolin-6-yl}-acrylamide”, in series [1], the food intake result is recorded as “normal food intake”; the “physical signs, appearance, behaviors, activities or shape of dejecta” value (“physical signs, appearance, behaviors” below) is “no abnormality”; the “weight and weight growth of the rats” value was “basically similar to the control group with no statistical difference”. Besides, the “inhibitory activity of EGFR tyrosine kinases” value (shortened to “inhibitory activity”) against EGFR tyrosine kinases is “excellent inhibitory activity”.
As to `C=CC(=O)Nc1ccc2ncnc(Nc3ccc(OCc4cccc(F)c4)c(Cl)c3)c2c1.CS(=O)(=O)O` [Methanesulfonate, Methanesulfonate of N-{4-[3-chloro-4-(3-fluoro-benzyloxy)phenylamino]-quinazolin-6-yl}-acrylamide], in series [1], the food intake result is recorded as “normal food intake” and the “physical signs, appearance, behaviors” value is recorded as “no abnormality”. Moreover, the “inhibitory activity” value on EGFR tyrosine kinases is “excellent inhibitory activity”.
What is called T/C is the result in the treated group divided by that in the control group, in per cent. Regarding `CO[C@@]12[C@H](COC(N)=O)C3=C(C(=O)C(C)=C(N)C3=O)N1C[C@@H]1N[C@@H]12` [MMC, Mitomycin, reference compound], in series [2] (setting [8]), the RTV is listed as 3.1 ± 0.5, the T/C is listed as 32.0% and the “Volume of tumor V21” value is 258 ± 77 mm^3.
One may read the IC50 as the concentration that inhibits the measured activity by half. A low value points to inhibition by little substance. The Cmax is the peak of the concentration-time curve. The term Tmax denotes the time at which the peak concentration occurs. In turn, `C=CC(=O)Nc1ccc2ncnc(Nc3ccc(OCc4cccc(F)c4)c(Cl)c3)c2c1.Cl` [Hydrochloride, The hydrochloride of N-{4-[3-chloro-4-(3-fluoro-benzyloxy)phenyl-amino]-quinazolin-6-yl}-acrylamide] had an IC50 in series [3] (listed as hydrochloride) of 840 nM. In series [1], the food intake entry was “normal food intake” and the “physical signs, appearance, behaviors” value is “no abnormality”. Also, in series [4], the AUC0-t amounted to 1038 ng·h/mL, the Cmax stood at 289 ng/mL, the T1/2 was found to be 1.27 h and the Tmax is given as 2.25 h. For the same compound, in series [4], the “absolute bioavailability by ig” value is 9.30%. Besides, the IC50 in series [5] (listed as hydrochloride) came out at 460 nM. Moreover, the “inhibitory activity” value on EGFR tyrosine kinases was “excellent inhibitory activity”.
Compound `C=CC(=O)Nc1ccc2ncnc(Nc3ccc(OCc4cccc(F)c4)c(Cl)c3)c2c1.Cc1ccc(S(=O)(=O)O)cc1` [p-Toluenesulfonate, p-Toluenesulfonate of N-{4-[3-chloro-4-(3-fluoro-benzyloxy)phenylamino]quinazolin-6-yl}-acrylamide] gave an IC50 in series [3] of 730 nM. In addition, in series [6] (25 mg/kg ig), the “Weight of animals (without tumor)” value was 21.58 ± 2.18 g, the “inhibition for tumor %” value was 29.99% and the “Weight of tumors x ± SD” value was 0.79 ± 0.20 g. In addition, in series [6] (50 mg/kg ig), the “Weight of animals (without tumor)” value stood at 22.05 ± 1.59 g, the “inhibition for tumor %” value came out at 37.15% and the “Weight of tumors x ± SD” value is recorded as 0.71 ± 0.20 g. Besides, in series [6] (100 mg/kg ig), the “Weight of animals (without tumor)” value worked out at 22.35 ± 1.92 g, the “inhibition for tumor %” value turned out to be 48.65% and the “Weight of tumors x ± SD” value was 0.58 ± 0.21 g. Moreover, the “inhibitory effect on the tumors (A431 xenograft)” value in series [6] (result in words) is “significant inhibitory effect”. Further, in series [1], the food intake entry is reported as “normal food intake” and the “physical signs, appearance, behaviors” value is “no abnormality”. For the same compound, in series [4], the AUC0-t stood at 1235 ng·h/mL, the Cmax worked out at 333 ng/mL, the T1/2 came out at 1.22 h and the Tmax worked out at 3.38 h. Also, the “absolute bioavailability by ig” value in series [4] is 11.07%. Further, it took 420 nM to reach half-maximal inhibition in series [5] (IC50). In series [7], the AUC0-t is 1860 ng·h/mL, the Cmax is recorded as 1745 ng/mL, the T1/2 is 1.55 h and the Tmax came to 4.98 min. Besides, in series [2] (setting [9]), the RTV came out at 5.1 ± 1.7, the T/C is on record as 53.0% and the “Volume of tumor V21” value came out at 421 ± 89 mm^3. For the same compound, in series [2] (setting [10]), the RTV was determined as 4.3 ± 1.3, the T/C worked out at 45.0% and the “Volume of tumor V21” value was 345 ± 88 mm^3. In series [2] (setting [11]), the RTV was 3.5 ± 0.8, the T/C came to 36.9% and the “Volume of tumor V21” value was 303 ± 72 mm^3. In addition, the “tumor inhibitory effect (SKOV-3 xenograft)” value in series [2] (result in words) was “conspicuous tumor inhibitory effect”. Moreover, the “inhibitory activity” value against EGFR tyrosine kinases is given as “excellent inhibitory activity”.
For `C=CC(=O)Nc1ccc2ncnc(Nc3ccc(OCc4cccc(F)c4)c(Cl)c3)c2c1.O=C(O)C(=O)O` [Oxalate, Oxalate of N-{4-[3-chloro-4-(3-fluoro-benzyloxy)phenylamino]-quinazolin-6-yl}-acrylamide], in series [1], the food intake result is listed as “normal food intake” and the “physical signs, appearance, behaviors” value is given as “no abnormality”. The “inhibitory activity” value at EGFR tyrosine kinases is recorded as “excellent inhibitory activity”.
